Results published in article PMC5391474, “Investigation of the Role of Protein Kinase D in Human Rhinovirus Replication” (Journal of Virology, 2017).

How the values were obtained:
Test in all cases: biochemical
Set-up in all cases: in vitro kinase selectivity panel, protein and lipid kinases, single concentration, ATP at Km
Settings in all cases: ATP at Km
[1] = target: T1, CHK2(h) (Homo sapiens, UniProt O96017)
T1 construct: gene CHEK2
Description: (§1) CRT0066101 was described previously ([48]) and was purchased for this study from Tocris, with a purity of 99.9%. CRT0066101 (XX-209) and compound XX-050 were synthesized as previously described ([68]). CRT0066051 (Y-095) was also synthesized as previously described ([69]). […] CRT0066101 can also be obtained in larger quantities from Ximbio. Inhibitors were tested in in vitro PKD kinase assays and cellular assays on PANC1 cells as previously described ([48]). The selectivity of the three PKD inhibitors was determined against a panel of protein and lipid kinases by Eurofins and the MRC PPU International Centre for Kinase Profiling (http://www.kinase-screen.mrc.ac.uk), respectively. Each inhibitor was tested at a single concentration of 1 μM and at an ATP concentration equivalent to the Km for each kinase. Having shown that HRV infection appears to activate PKD, we went on to explore the influence of chemical inhibitors of PKD on HRV replication. The compound CRT0066101 is a specific and potent PKD inhibitor that has been used in studies exploring its potential as an anticancer target ([48], [51]). This inhibitor has a 50% inhibitory concentration (IC50) of 1 nM against purified PKD in biochemical assays and a 50% effective concentration (EC50) of 1 μM in a cell-based assay (Table 1). We pretreated HeLa cells with increasing concentrations of the drug for 1 h followed by infection with HRV16. Viral replication was subsequently measured at 6 hpi by quantitative real-time PCR (qRT-PCR) (Fig. 2A) and by Western blotting using an antibody against the viral nonstructural protein 2C (Fig. 2B). […] Furthermore, we tested two novel and structurally different PKD inhibitors (CRT0066051 and XX-050) (Table 1) and confirmed that they too inhibited HRV 2C expression although with different potencies (Fig. 2D). Kinase selectivity profiling of all three PKD inhibitors was performed against a panel of protein and lipid kinases at a drug concentration of 1 μM and at an ATP concentration equivalent to the Km of each kinase (see Table S1 in the supplemental material). […] Since PKD is known to be involved in regulating the architecture of the Golgi apparatus, we confirmed the pharmacodynamic effect of these inhibitors by demon

[2] = target: Fer(h) (Homo sapiens, UniProt P16591)
Description: as §1

[3] = target: T2, CK1γ1(h) (Homo sapiens, UniProt Q9HCP0)
T2 construct: gene CSNK1G1
T2 sequence (Q9HCP0 whole entry): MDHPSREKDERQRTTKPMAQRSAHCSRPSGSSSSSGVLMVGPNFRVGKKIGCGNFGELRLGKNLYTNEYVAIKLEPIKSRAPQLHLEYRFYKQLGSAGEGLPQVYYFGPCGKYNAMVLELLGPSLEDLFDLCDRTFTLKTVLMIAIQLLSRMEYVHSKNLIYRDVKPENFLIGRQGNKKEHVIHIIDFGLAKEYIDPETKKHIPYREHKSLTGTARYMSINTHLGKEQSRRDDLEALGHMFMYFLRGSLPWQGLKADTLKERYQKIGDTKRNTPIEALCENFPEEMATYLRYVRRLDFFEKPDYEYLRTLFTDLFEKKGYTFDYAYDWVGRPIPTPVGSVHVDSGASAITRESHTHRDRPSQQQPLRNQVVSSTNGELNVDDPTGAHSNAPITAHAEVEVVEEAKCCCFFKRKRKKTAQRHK
Description: as §1

[4] = target: T3, IKKα(h) (Homo sapiens, UniProt O15111)
T3 construct: gene CHUK
T3 sequence (O15111 whole entry): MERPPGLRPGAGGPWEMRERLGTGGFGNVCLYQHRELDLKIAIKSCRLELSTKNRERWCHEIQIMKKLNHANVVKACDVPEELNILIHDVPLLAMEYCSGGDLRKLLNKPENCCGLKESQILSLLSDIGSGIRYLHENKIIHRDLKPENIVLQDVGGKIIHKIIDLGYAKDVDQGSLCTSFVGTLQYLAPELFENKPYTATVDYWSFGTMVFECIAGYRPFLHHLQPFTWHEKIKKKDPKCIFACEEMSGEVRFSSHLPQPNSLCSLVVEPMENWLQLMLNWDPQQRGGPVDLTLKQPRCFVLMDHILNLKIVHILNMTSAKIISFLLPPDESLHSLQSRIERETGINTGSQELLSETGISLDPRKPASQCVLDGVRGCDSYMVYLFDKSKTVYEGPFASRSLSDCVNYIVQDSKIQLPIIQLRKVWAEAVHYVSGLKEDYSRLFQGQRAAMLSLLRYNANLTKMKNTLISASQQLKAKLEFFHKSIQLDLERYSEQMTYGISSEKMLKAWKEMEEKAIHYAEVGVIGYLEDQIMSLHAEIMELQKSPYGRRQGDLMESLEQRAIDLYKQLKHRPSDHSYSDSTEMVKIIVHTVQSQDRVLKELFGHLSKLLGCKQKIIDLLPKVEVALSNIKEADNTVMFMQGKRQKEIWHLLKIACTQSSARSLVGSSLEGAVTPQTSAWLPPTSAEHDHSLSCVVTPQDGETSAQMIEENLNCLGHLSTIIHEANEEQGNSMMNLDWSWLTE
Description: as §1

[5] = target: T4, LKB1(h) (Homo sapiens, UniProt Q15831)
T4 construct: gene STK11
Description: as §1

[6] = target: T5, Yes(h) (Homo sapiens, UniProt P07947)
T5 construct: gene YES1
T5 sequence (P07947 whole entry): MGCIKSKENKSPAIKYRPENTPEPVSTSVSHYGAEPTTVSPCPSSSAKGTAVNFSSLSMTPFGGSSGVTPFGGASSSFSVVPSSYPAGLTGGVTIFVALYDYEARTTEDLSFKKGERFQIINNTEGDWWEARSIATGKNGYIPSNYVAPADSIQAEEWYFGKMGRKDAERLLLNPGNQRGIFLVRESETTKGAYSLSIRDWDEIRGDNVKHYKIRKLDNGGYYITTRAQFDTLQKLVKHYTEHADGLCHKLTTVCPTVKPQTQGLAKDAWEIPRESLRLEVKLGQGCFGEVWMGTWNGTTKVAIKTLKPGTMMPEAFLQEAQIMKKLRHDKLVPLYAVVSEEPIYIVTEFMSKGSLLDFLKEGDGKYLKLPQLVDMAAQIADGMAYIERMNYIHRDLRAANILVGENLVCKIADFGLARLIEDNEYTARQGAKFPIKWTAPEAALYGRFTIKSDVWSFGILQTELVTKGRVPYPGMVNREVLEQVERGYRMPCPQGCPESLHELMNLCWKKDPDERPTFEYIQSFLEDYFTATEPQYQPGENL
Description: as §1

[7] = target: Ret(h) (Homo sapiens, UniProt P07949)
Description: as §1

[8] = target: T6, Abl(T315I)(h) (Homo sapiens, UniProt P00519, T315I)
T6 construct: gene ABL1
Description: as §1

[9] = target: T7, ZIPK(h) (Homo sapiens, UniProt O43293)
T7 construct: gene DAPK3
T7 sequence (O43293 whole entry): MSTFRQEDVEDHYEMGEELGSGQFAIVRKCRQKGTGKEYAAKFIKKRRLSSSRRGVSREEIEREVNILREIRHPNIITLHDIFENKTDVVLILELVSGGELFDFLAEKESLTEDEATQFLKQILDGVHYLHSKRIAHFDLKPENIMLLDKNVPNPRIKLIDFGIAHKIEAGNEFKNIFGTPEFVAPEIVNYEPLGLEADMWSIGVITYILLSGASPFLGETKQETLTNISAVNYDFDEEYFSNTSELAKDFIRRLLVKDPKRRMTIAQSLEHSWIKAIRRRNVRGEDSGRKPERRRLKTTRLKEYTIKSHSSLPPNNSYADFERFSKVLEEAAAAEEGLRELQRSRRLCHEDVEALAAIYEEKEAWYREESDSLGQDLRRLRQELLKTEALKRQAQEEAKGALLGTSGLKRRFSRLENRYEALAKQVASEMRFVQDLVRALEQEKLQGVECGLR
Description: as §1

[10] = target: T8, CaMKIV(h) (Homo sapiens, UniProt Q16566)
T8 construct: gene CAMK4
T8 sequence (Q16566 whole entry): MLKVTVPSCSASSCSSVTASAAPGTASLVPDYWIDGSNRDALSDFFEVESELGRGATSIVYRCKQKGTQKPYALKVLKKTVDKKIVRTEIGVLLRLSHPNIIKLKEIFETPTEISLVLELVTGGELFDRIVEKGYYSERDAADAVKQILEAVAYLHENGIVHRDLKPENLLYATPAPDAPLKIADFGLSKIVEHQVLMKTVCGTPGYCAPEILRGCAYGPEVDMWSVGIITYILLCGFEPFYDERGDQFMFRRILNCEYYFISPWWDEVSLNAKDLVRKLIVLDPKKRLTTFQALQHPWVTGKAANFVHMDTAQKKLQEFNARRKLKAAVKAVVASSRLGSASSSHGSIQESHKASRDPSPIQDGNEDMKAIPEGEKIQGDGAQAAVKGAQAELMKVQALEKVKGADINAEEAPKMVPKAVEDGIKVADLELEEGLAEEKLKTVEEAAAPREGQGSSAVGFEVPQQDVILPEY
Description: as §1

[11] = target: T9, PKBα(h) (Homo sapiens, UniProt P31749)
T9 construct: gene AKT1
Description: as §1

[12] = target: Bmx(h) (Homo sapiens, UniProt P51813)
Chain of Bmx(h) (P51813 whole entry): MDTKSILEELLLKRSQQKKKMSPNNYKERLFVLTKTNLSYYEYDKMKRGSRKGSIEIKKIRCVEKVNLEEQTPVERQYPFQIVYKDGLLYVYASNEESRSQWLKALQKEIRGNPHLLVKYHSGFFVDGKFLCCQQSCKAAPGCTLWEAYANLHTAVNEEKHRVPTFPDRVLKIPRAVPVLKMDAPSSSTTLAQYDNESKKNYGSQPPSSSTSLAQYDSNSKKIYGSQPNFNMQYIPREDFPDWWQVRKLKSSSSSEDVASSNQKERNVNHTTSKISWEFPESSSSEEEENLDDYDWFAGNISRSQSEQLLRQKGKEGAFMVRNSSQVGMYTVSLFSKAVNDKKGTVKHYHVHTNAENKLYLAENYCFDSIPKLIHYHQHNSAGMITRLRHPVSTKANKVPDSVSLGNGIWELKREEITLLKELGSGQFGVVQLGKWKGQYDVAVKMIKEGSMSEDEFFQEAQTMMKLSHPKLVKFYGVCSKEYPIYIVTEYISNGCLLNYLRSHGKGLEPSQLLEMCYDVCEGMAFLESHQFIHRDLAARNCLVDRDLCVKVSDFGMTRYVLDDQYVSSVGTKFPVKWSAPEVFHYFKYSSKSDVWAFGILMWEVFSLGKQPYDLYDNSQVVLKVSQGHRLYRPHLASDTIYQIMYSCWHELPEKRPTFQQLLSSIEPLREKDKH
Description: as §1

[13] = target: Fes(h) (Homo sapiens, UniProt P07332)
Chain of Fes(h) (P07332 whole entry): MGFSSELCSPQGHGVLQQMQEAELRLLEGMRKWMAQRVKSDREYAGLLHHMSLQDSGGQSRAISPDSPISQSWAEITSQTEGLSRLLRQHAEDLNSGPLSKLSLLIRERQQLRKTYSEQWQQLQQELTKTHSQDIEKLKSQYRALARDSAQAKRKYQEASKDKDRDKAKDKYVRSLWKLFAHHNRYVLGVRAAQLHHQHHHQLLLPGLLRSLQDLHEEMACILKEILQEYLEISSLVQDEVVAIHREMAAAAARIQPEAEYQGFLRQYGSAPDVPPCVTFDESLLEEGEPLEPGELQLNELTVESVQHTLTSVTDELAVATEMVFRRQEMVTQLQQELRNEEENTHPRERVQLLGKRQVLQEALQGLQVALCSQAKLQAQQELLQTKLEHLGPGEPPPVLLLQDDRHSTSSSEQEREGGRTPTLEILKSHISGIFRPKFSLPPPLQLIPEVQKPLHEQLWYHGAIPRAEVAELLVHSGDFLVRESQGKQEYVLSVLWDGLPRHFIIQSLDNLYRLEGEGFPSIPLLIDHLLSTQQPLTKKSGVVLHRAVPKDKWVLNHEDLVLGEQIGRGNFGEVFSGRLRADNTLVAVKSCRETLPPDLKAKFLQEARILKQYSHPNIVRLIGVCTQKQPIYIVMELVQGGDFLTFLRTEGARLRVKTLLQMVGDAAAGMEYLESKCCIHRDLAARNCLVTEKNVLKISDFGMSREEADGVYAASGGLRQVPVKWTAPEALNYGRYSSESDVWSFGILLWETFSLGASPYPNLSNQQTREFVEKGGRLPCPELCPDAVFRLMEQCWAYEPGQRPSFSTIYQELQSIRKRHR
Description: as §1

[14] = target: T10, Aurora-A(h) (Homo sapiens, UniProt O14965)
T10 construct: gene AURKA
Description: as §1

[15] = target: T11, p70S6K(h) (Homo sapiens, UniProt P23443)
T11 construct: gene RPS6KB1
T11 sequence (P23443 whole entry): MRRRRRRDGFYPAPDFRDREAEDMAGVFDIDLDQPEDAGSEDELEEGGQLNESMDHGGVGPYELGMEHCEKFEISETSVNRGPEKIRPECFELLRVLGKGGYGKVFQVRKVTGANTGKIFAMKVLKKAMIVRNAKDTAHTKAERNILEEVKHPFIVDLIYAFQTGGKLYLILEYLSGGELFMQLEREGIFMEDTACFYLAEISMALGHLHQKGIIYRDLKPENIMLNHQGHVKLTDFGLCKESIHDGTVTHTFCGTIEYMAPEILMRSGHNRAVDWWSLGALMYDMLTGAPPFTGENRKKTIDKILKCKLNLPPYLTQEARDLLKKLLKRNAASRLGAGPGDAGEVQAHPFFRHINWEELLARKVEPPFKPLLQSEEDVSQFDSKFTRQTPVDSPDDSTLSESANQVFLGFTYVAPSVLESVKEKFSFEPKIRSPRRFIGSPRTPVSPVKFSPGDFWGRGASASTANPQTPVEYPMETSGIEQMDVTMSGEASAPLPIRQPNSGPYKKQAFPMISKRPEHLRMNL
Description: as §1

[16] = target: T12, TrkB(h) (Homo sapiens, UniProt Q16620)
T12 construct: gene NTRK2
Description: as §1

[17] = target: T13, CaMKI(h) (Homo sapiens, UniProt Q14012)
T13 construct: gene CAMK1
Description: as §1

[18] = target: SPHK1 (Homo sapiens, UniProt Q9NYA1)
Description: as §1

CC[C@@H](N)CNc1ccnc(-c2cc(-c3cnn(C)c3)ccc2O)n1 [CRT0066101]
inhibition at 1 µM [1]: 26% | inhibition at 1 µM [2]: -25% | inhibition at 1 µM [3]: -5% | inhibition at 1 µM [4]: 66% | inhibition at 1 µM [5]: -13% | inhibition at 1 µM [6]: 40% | inhibition at 1 µM [7]: 0% | inhibition at 1 µM [8]: 5% | inhibition at 1 µM [9]: 7% | inhibition at 1 µM [10]: 26% | inhibition at 1 µM [11]: -6% | inhibition at 1 µM [12]: 26% | inhibition at 1 µM [13]: -20% | inhibition at 1 µM [14]: -1% | inhibition at 1 µM [15]: 31% | inhibition at 1 µM [16]: 15% | inhibition at 1 µM [17]: 2% | inhibition at 1 µM [18]: 19%
